Experiments:
AMARE [1] = assay: Pre-emergence action at 320 g/ha against AMARE; format: in vivo, Amaranthus retroflexus; settings: visual scoring after about 3 weeks vs untreated controls
From the text: (§1) b) Seeds of monocotyledonous and dicotyledonous weed plants and crop plants are placed in plastic or organic planting pots and covered with soil. The compounds of the invention, formulated in the form of wettable powders (WP) or as emulsion concentrates (EC), are then applied onto the surface of the covering soil as aqueous suspension or emulsion with addition of 0.5% additive at a water application rate of 600 l/ha (converted). After the treatment, the pots are placed in a greenhouse and kept under good growth conditions for the trial plants. After about 3 weeks, the effect of the preparations is scored visually in comparison with untreated controls as percentages. For example, 100% activity=the plants have died, 0% activity=like control plants. Tables 13 to 26 below show the effects of selected compounds of the general formula (I) on various harmful plants and at an application rate corresponding to 320 g/ha, which were obtained by the experimental procedure mentioned above.

SETVI [2] = assay: Pre-emergence action at 320 g/ha against SETVI; format: in vivo, Setaria viridis; settings: visual scoring after about 3 weeks vs untreated controls
From the text: as §1

MATIN [3] = assay: Pre-emergence action at 320 g/ha against MATIN; format: in vivo, Tripleurospermum inodorum (Matricaria inodora); settings: visual scoring after about 3 weeks vs untreated controls
From the text: as §1

ALOMY [4] = assay: Pre-emergence action at 320 g/ha against ALOMY; format: in vivo, Alopecurus myosuroides; settings: scored visually after about 3 weeks vs untreated controls (100% = plants have died)
From the text: as §1

POLCO = assay: Pre-emergence action at 320 g/ha against POLCO; format: in vivo, Fallopia convolvulus (Polygonum convolvulus); settings: visual scoring after about 3 weeks vs untreated controls
From the text: as §1

VIOTR = assay: Pre-emergence action at 320 g/ha against VIOTR; format: in vivo, Viola tricolor; settings: dosage 320 g/ha
From the text: as §1

LOLRI [5] = assay: Pre-emergence action at 320 g/ha against LOLRI; format: in vivo, Lolium rigidum; settings: visual scoring after about 3 weeks vs untreated controls
From the text: as §1

DIGSA [6] = assay: Pre-emergence action at 320 g/ha against DIGSA; format: in vivo, Digitaria sanguinalis; settings: visual scoring after about 3 weeks vs untreated controls
From the text: as §1

VERPE [7] = assay: Pre-emergence action at 320 g/ha against VERPE; format: in vivo, Veronica persica; settings: visual scoring after about 3 weeks vs untreated controls
From the text: as §1

AMARE [8] = assay: Pre-emergence action against AMARE, 1280 g/ha; format: in vivo, Amaranthus retroflexus; settings: scored visually after about 3 weeks vs untreated controls (100% = plants have died)
From the text: (§2) 1. Pre-Emergence Herbicidal Effect and Crop Plant Compatibility a) Seeds of mono- and dicotyledonous weed plants are placed in plastic pots in sandy loam soil (doubly sown with one species each of mono- or dicotyledonous weed plants per pot) and covered with soil. The compounds of the invention, formulated in the form of wettable powders (WP) or as emulsion concentrates (EC), are then applied onto the surface of the covering soil as aqueous suspension or emulsion with addition of 0.5% additive at a water application rate equivalent to 600 litres per hectare. After the treatment, the pots are placed in a greenhouse and kept under good growth conditions for the trial plants. After about 3 weeks, the effect of the preparations is scored visually in comparison with untreated controls as percentages. For example, 100% activity=the plants have died, 0% activity=like control plants. 1. Pre-Emergence Effectiveness Tables 1 to 12 below show the effects of selected compounds of the general formula (I) according to Tables 1 and 2 on various harmful plants and at an application rate corresponding to 1280 g/ha, which were obtained by the experimental procedure mentioned above.

STEME = assay: Pre-emergence action against STEME, 1280 g/ha; format: in vivo, Stellaria media; settings: scored visually after about 3 weeks vs untreated controls (100% = plants have died)
From the text: as §2

LOLRI [9] = assay: Pre-emergence action against LOLRI, 1280 g/ha; format: in vivo, Lolium rigidum; settings: visual scoring after about 3 weeks vs untreated controls, 100% = plants have died, 0% = like control plants
From the text: as §2

MATIN [10] = assay: Pre-emergence action against MATIN, 1280 g/ha; format: in vivo, Tripleurospermum inodorum (Matricaria inodora); settings: scored visually after about 3 weeks vs untreated controls (100% = plants have died)
From the text: as §2

ABUTH = assay: Post-emergence action against ABUTH, 1.28 kg/ha; format: in vivo, Abutilon theophrasti; settings: dosage 1280 g/ha, visual rating about 3 weeks after treatment vs untreated controls (100% = plants died)
Description: (§3) • a) Seeds of mono- and dicotyledonous weed plants are placed in plastic pots in sandy loam soil (twin sowing with one species each of mono- or dicotyledonous weed plants per pot), covered with soil and cultivated in a greenhouse under controlled growth conditions. 2 to 3 weeks after sowing, the test plants are treated at the one-leaf stage. The compounds of the invention, formulated in the form of wettable powders (WP) or as emulsion concentrates (EC), are applied to the green parts of the plants as aqueous suspension or emulsion with addition of 0.5% additive at a water application rate equivalent to 600 litres per hectare. After the test plants have been kept in the greenhouse under optimum growth conditions for about 3 weeks, the activity of the preparations is rated visually in comparison to untreated controls. For example, 100% activity=the plants have died, 0% activity=like control plants. As shown by the results, compounds of the general formula (I) of the invention, in post-emergence treatment, have very good herbicidal efficacy (90% to 100% herbicidal action) against harmful plants such as Abutilon theophrasti, Digitaria sanguinalis, Echinochloa crus-galli, Matricaria inodora, Poa annua, at an application rate of 1.28 kg of active substance per hectare.

ECHCG = assay: Post-emergence action against ECHCG, 1.28 kg/ha; format: in vivo, Echinochloa crus-galli; settings: dosage 1280 g/ha, visual rating about 3 weeks after treatment vs untreated controls
Description: as §3

MATIN [11] = assay: Post-emergence action against MATIN, 1.28 kg/ha; format: in vivo, Tripleurospermum inodorum (Matricaria inodora); settings: dosage 1280 g/ha, visual rating about 3 weeks after treatment vs untreated controls (100% = plants died)
Description: as §3

POAAN [12] = assay: Post-emergence action against POAAN, 1.28 kg/ha; format: in vivo, Poa annua; settings: dosage 1280 g/ha, visual rating about 3 weeks after treatment vs untreated controls
Description: as §3

DIGSA [13] = assay: Pre-emergence action against DIGSA, 1280 g/ha; format: in vivo, Digitaria sanguinalis; settings: visual scoring after about 3 weeks vs untreated controls, 100% = plants have died, 0% = like control plants
From the text: as §2

ALOMY [14] = assay: Post-emergence action against ALOMY, 1.28 kg/ha; format: in vivo, Alopecurus myosuroides; settings: dosage 1280 g/ha, visual rating about 3 weeks after treatment vs untreated controls
Description: as §3

DIGSA [15] = assay: Post-emergence action against DIGSA, 1.28 kg/ha; format: in vivo, Digitaria sanguinalis; settings: dosage 1280 g/ha, visual rating about 3 weeks after treatment vs untreated controls
Description: as §3

VERPE [16] = assay: Post-emergence action against VERPE, 1.28 kg/ha; format: in vivo, Veronica persica; settings: dosage 1280 g/ha, visual rating about 3 weeks after treatment vs untreated controls (100% = plants died)
Description: as §3

VERPE [17] = assay: Pre-emergence action against VERPE, 1280 g/ha; format: in vivo, Veronica persica; settings: scored visually after about 3 weeks vs untreated controls (100% = plants have died)
From the text: as §2

POAAN [18] = assay: Pre-emergence action against POAAN, 1280 g/ha; format: in vivo, Poa annua; settings: visual scoring after about 3 weeks vs untreated controls, 100% = plants have died, 0% = like control plants
From the text: as §2

SETVI [19] = assay: Pre-emergence action against SETVI, 1280 g/ha; format: in vivo, Setaria viridis; settings: visual scoring after about 3 weeks vs untreated controls, 100% = plants have died, 0% = like control plants
From the text: as §2

SETVI [20] = assay: Post-emergence action against SETVI, 1.28 kg/ha; format: in vivo, Setaria viridis; settings: dosage 1280 g/ha, visual rating about 3 weeks after treatment vs untreated controls
Description: as §3

Row | Compound | Pre-emergence action against AMARE in % (AMARE [1]) [%] | Pre-emergence action against SETVI in % (SETVI [2]) [%] | Pre-emergence action against MATIN in % (MATIN [3]) [%] | Pre-emergence action at 320 g/ha against ALOMY in % (ALOMY [4]) [%] | Pre-emergence action against POLCO in % (POLCO) [%] | Pre-emergence action against VIOTR in % (VIOTR) [%] | Pre-emergence action against VERPE in % (VERPE [7]) [%] | further results
1 | O=C(O)CNC(=O)C(F)Oc1nn(-c2ccccc2F)c(-c2ccc(F)nc2)c1Br (centres unmarked) [Example X-012] | 100 | 90 | 90 | 90 | 90 | 100 |  | 
2 | COC(=O)CNC(=O)C(F)Oc1nn(-c2ccccc2F)c(-c2ccc(F)nc2)c1Br (centres unmarked) [Example X-014] | 100 | 90 | 90 | 90 |  | 100 |  | Pre-emergence action against LOLRI in % (LOLRI [5]): 90%
3 | COC(=O)CN(C)C(=O)COc1nn(-c2ccccc2F)c(-c2ccc(F)nc2)c1Br [Example X-030] | 90 | 80 |  | 90 |  | 90 |  | Pre-emergence action against DIGSA in % (DIGSA [6]): 100%
4 | COC(=O)C1CCCN(C(=O)COc2nn(-c3ccccc3F)c(-c3cncc(F)c3)c2Br)C1 (centres unmarked) [Example X-034] |  |  |  |  |  | 90 | 90 | 
5 | COC(=O)C1CCN(C(=O)COc2nn(-c3ccccc3F)c(-c3cncc(F)c3)c2Br)C1 (centres unmarked) [Example X-037] | 100 |  |  |  | 90 |  | 100 | 
6 | O=C(O)C1CCN(C(=O)COc2nn(-c3ccccc3F)c(-c3cncc(F)c3)c2Br)CC1 [Example X-038] |  |  |  |  |  |  |  | Pre-emergence action against AMARE (AMARE [8]): 100%; Pre-emergence action against STEME (STEME): 90%; Pre-emergence action against LOLRI (LOLRI [9]): 90%; Pre-emergence action against MATIN (MATIN [10]): 90%; Post-emergence action against ABUTH (ABUTH): 90%; Post-emergence action against ECHCG (ECHCG): 90%; Post-emergence action against MATIN (MATIN [11]): 100%; Post-emergence action against POAAN (POAAN [12]): 100%; Pre-emergence action against DIGSA (DIGSA [13]): 90%; Post-emergence action against ALOMY (ALOMY [14]): 90%; Post-emergence action against DIGSA (DIGSA [15]): 90%; Post-emergence action against VERPE (VERPE [16]): 100%; Pre-emergence action against VERPE (VERPE [17]): 90%; Pre-emergence action against POAAN (POAAN [18]): 100%; Pre-emergence action against SETVI (SETVI [19]): 100%; Post-emergence action against SETVI (SETVI [20]): 90%
